In patent US8552063B2, “Composition for accelerated production of collagen” (E.S.L.I. Limited, priority 2008, dated 2013):

Tested on: human dermal fibroblasts
Test: Collagen I secretion, CODTA combined with SDA (Example 3)
Assay type: cell-based
Details: in combination with Stearidonic Acid base; relative to diluent (vehicle) alone
Protocol: This example provides outline results of the effect of two test active ingredient mixes on collagen I secretion by human dermal fibroblasts. Human dermal fibroblasts (originally derived from explant cultures of normal human breast dermis) were cultured under standard conditions. Two test combinations of actives (CODTA's when combined with SDA) were initially screened for cytotoxicity before testing.
Collagen I levels were determined and are expressed as a percentage of the levels observed in samples from cultures treated with diluent (vehicle) alone.
Pepsin digests of both cell culture medium, and the cell culture surface (plate) from each treated culture well were analysed.

CCCCC\C=C/C=C/C=C/CCCCCCC(=O)O [Calendic Acid, Calendic acid]
Percentage increase in collagen I secretion: 187%

CCCCC\C=C/C=C/C=C\CCCCCCC(=O)O [Jacaric Acid, Jacaric acid]
Percentage increase in collagen I secretion: 278%
